Assay results as given in PMC5084681, “Ephenidine: A new psychoactive agent with ketamine-like NMDA receptor antagonist properties” (Neuropharmacology, 2017).
Where “and” joins values, the source holds several entries; their conditions need not be identical. Identical values can stand only once. Entries after “also recorded” stand apart in the source; their conditions may differ. Like-named read-outs stand apart in the source and are kept apart here.

Tests used:
[1] = tested on: NMDA receptor-mediated fEPSP; experiment: Extracellular recording of NMDA receptor-mediated fEPSP in CA1 of hippocampal slices; format: cell-based, rat; conditions: for time-course of reduction of NMDA receptor mediated fEPSP: 1 and 10 μM; for inhibition of NMDA receptor mediated fEPSP: after 4 h superfusion
Protocol: (§1) Male Wistar and Sprague-Dawley rats (Crl:Wi; Charles River, UK) aged 3–10 weeks old were killed by dislocation of cervical vertebrae according to Schedule 1 of the United Kingdom (Scientific Procedures) Act of 1986. Brains were rapidly removed and put in artificial cerebrospinal fluid (aCSF) consisting of 124 mM NaCl, 26 mM NaHCO3, 3 mM KCl, 1.4 mM NaH2PO4, 1 mM MgSO4, 2 mM CaCl2, and 10 mM D-glucose and continuously oxygenated with 95% O2 and 5% CO2. Parasagittal brain slices, 400 μm thick, of the hippocampus were removed, stored and placed in a submerged recording chamber at 28–30 °C.
(§2) Recordings of extracellular synaptic activity were made ([Ceolin et al., 2012], [Volianskis et al., 2013]) using a bipolar electrode to deliver stimuli (0.03 Hz) to the Schaffer collateral pathway to evoke field excitatory postsynaptic potentials (fEPSPs) recorded from a glass microelectrode (3–6 MΩ) in the stratum radiatum of area CA1. […] In initial experiments after 30 min of stable control responses, the remaining response was challenged with 30 μM ephenidine. Using this protocol for isolating NMDA-fEPSPs (see Fig. 2A), 1 and 10 μM ephenidine or 1 and 10 μM D-2-amino-5-phosphonopentanoic acid (D-AP5) were added to the perfusate for up to 4 h while recording the amplitude and area of the NMDA-fEPSP on-line using WinLTP ([Anderson and Collingridge, 2007]). Single exponential curves were fitted to show likely half-times and minimum plateau responses achieved with each concentration used. For selectivity experiments, 50 μM picrotoxin and 1 μM CGP 55845 were added to the solution from the beginning of the experiment and 50 μM ephenidine was superfused for 60 min in the absence of other pharmacological agent.

[2] = tested on: NMDA receptor-mediated EPSCs; experiment: Whole-cell patch clamp of NMDA receptor-mediated EPSCs in CA1 pyramidal cells; format: cell-based, rat
Protocol: as §1
Whole-cell patch clamp recordings of excitatory postsynaptic currents (EPSCs) were made from CA1 pyramidal cells under visual guidance with IR-DIC optics as described by [Park et al. (2016)]. The recording chamber was maintained at 32 °C. Borosilicate glass pipettes were used with a resistance of 3–5 MΩ. The internal solution comprised (mM): 8 NaCl, 130 CsMeSO3, 10 HEPES, 0.5 EGTA, 4 Mg-ATP, 0.3 Na3-GTP, 5 QX-314 and 0.1 spermine. The pH was adjusted to 7.2–7.3 with CsOH and osmolarity to 285–290 mOsm. Peak amplitude of EPSCs was measured while varying holding voltage from −60 mV to +60 mV and stimulating the Schaffer collateral pathway at a frequency of 0.1 Hz at constant intensity. Five consecutive responses obtained at each holding potential were averaged to plot the current-voltage relationship. Currents through NMDA receptors were pharmacologically isolated using 10 μM NBQX, 50 μM picrotoxin and 20 μM (+)-bicuculline. In initial experiments, MgSO4 was omitted from the bath solution for at least 30 min before patching and replaced with 30 μM ephenidine, 10 μM ketamine, 30 μM D-AP5 or 2 mM MgSO4. Rectification indices were calculated from the EPSC values at +40 mV and −40 mV. In subsequent experiments, slices were incubated in aCSF with no added MgSO4, before transferring to the recording chamber to obtain control current-voltage plots from NMDA-EPSCs as above before adding 2 mM MgSO4 or 30 μM ephenidine for 30 min and repeating the current-voltage protocol. Representative sample traces are shown from typical experiments, and stimulus artifacts blanked for clarity. Data were normalized to the baseline preceding drug application, and are presented as mean ± SEM and compared using one-way ANOVA and level of significance is denoted as *** for p values < 0.001.

[3] = tested on: AMPA receptor-mediated fEPSP; experiment: Extracellular recording of AMPA receptor-mediated fEPSP in CA1 of hippocampal slices; format: cell-based, rat
Protocol: as §1
as §2, with “Single exponential curves were fitted to show likely half-times and minimum plateau responses achieved with each concentration used. For selectivity experiments, 50 μM picrotoxin and 1 μM CGP 55845 were added to the solution from the beginning of the experiment and 50 μM ephenidine was superfused for 60 min in the absence of other pharmacological agent.” left out

[4] = target: MK-801 binding site of the NMDA receptor; experiment: (+)-[3H]-MK-801 displacement binding in whole rat brain homogenate
Protocol: Termination of reaction was performed via vacuum filtration using a 24 well cell harvester (Brandel, Gaithersburg, MD) over presoaked GF/B glass fiber filters (Brandel, Gaithersburg, MD). Filters were washed with room temperature assay buffer (3 × 5 mL). Trapped tritium was measured via liquid scintillation counting, using a Beckman LS 6500 multipurpose scintillation counter (BeckmanCoulter, USA) at 57% efficiency. IC50 values were determined in Graphpad Prism 5.0 using non-linear regression with log-concentration plotted against percent specific binding. […] Ki values were calculated using the equation of [Cheng and Prusoff (1973)]. […] Protein concentration was determined via the Bradford method using Coomassie protein assay reagent (Sigma, USA) with rat albumin (Sigma, USA) as standard. Experiments were performed in duplicate and repeated three or four times.

[5] = target: dopamine transporter (DAT) (Homo sapiens, UniProt Q01959); experiment: NIMH PDSP receptor binding assay, dopamine transporter
Chain of dopamine transporter (DAT) (Q01959 whole entry, species assumed): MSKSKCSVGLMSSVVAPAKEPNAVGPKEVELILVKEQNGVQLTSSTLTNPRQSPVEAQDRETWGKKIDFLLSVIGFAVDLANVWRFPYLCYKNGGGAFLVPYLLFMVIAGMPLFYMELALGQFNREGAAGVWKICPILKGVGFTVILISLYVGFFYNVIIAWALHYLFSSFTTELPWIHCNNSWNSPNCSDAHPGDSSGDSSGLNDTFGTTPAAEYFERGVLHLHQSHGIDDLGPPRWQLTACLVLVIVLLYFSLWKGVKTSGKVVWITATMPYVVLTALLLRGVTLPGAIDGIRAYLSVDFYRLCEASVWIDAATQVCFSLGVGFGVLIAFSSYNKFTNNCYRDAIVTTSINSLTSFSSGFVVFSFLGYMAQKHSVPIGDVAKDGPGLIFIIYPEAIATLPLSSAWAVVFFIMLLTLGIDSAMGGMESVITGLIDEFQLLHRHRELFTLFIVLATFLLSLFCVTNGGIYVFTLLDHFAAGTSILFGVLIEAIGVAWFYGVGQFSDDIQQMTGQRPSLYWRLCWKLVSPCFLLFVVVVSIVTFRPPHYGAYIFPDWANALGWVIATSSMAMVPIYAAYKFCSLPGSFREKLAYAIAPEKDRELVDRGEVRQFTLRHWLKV
Protocol: (§3) Displacement by ephenidine in binding assays of a further 45 CNS receptors was performed through the National Institute of Mental Health Psychoactive Drug Screening Program (NIMH PDSP). Briefly ephenidine, dissolved in DMSO, was subject to a primary screen at a concentration of 10 μM (see Suppl. 2 for radioligands used). […] Additional experimental details are available in the NIMH PDSP protocol book ([Roth et al., 2013]).

[6] = target: noradrenaline transporter (NET) (Homo sapiens, UniProt P23975); experiment: NIMH PDSP receptor binding assay, noradrenaline transporter
Chain of noradrenaline transporter (NET) (P23975 whole entry): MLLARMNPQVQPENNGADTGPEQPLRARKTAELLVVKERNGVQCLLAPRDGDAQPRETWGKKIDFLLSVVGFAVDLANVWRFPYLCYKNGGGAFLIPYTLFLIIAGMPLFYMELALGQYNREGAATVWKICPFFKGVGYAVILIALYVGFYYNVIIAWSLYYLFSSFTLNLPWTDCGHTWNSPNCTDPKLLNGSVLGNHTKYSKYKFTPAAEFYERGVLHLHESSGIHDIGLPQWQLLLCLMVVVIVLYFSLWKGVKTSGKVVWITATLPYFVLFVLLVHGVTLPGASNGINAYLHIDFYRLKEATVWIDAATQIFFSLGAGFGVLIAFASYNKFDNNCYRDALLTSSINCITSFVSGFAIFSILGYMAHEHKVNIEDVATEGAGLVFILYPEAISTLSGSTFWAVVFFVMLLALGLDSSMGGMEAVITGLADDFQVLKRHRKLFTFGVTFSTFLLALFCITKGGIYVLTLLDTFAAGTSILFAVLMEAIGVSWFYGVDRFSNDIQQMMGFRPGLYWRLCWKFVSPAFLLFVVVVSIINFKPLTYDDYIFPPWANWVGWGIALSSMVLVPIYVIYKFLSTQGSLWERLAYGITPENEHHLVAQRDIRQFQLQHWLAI
Protocol: as §3

[7] = target: sigma 1 binding site (Homo sapiens, UniProt Q99720); experiment: NIMH PDSP receptor binding assay, sigma 1; conditions: affinity for sigma 1 binding site, NIMH PDSP secondary assay
Chain of sigma 1 binding site (Q99720 whole entry): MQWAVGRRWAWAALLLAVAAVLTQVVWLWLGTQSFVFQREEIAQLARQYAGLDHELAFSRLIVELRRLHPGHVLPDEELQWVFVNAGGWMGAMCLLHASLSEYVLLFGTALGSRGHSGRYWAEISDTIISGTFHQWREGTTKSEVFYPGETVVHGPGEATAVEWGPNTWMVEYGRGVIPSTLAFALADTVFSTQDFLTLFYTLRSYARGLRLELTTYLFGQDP
Protocol: as §3

[8] = target: sigma 2 binding site (Homo sapiens, UniProt Q5BJF2); experiment: NIMH PDSP receptor binding assay, sigma 2
Chain of sigma 2 binding site (Q5BJF2 whole entry): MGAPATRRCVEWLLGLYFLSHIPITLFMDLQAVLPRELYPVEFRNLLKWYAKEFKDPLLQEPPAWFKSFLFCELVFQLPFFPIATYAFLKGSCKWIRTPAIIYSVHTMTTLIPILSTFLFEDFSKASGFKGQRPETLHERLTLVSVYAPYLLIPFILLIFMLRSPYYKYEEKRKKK
Protocol: as §3

[9] = tested on: remaining 41 CNS receptors (Supplement 2); experiment: NIMH PDSP primary binding screen at 10 μM, remaining 41 receptors
Protocol: as §3

[10] = tested on: long-term potentiation (LTP) in CA1; experiment: LTP of fEPSPs in Schaffer collateral-CA1 pathway induced by theta burst stimulation; format: cell-based, rat
Protocol: as §1
To study the effect of ephenidine on long-term potentiation (LTP), slices were incubated in control aCSF or aCSF containing 10 μM ephenidine for at least 2 h before transferring to the recording chamber, fEPSPs were recorded as above without addition of other agents. After obtaining stable responses, a theta burst stimulation (TBS; [Park et al., 2016]) was applied to the Schaffer collateral pathway and the amplitude of the fEPSP in CA1 monitored for at least a further 40 min.

[11] = tested on: PCP binding site; set-up: method as in Thurkauf et al., 1989; conditions: ref Thurkauf et al., 1989; cited from earlier work
[12] = target: MK-801 binding site of the NMDA receptor; set-up: method as in Wallach et al., 2016; conditions: same assay, ref Wallach et al., 2016, cited from earlier work; for Ki: read-out: Ki, (+)-[3H]-MK-801 displacement

Compound: N[C@H](CCCP(=O)(O)O)C(=O)O [D-AP5, D-2-amino-5-phosphonopentanoic acid, reference compound]
- time-course of reduction of NMDA receptor mediated fEPSP [1]: rapid reduction
- rectification index (RI; +40 mV/−40 mV) ([2]; 30 μM D-AP5, no added Mg2+): 0.8 ± 0.01
- effect on NMDA-EPSC current-voltage relationship ([2]; 30 μM, no added Mg2+): reduced both inward and outward current

Compound: NS(=O)(=O)c1cccc2c1c([N+](=O)[O-])cc1nc(O)c(O)nc12 [NBQX, reference compound]
- effect on AMPA receptor mediated fEPSP ([3]; 3 μM): rapid block of the remaining fEPSP

Compound: CCNC(Cc1ccccc1)c1ccccc1 (stereo not shown) [ephenidine, N-Ethyl-1,2-diphenylethanamine]
- IC50 ([4]; 1 nM (+)-[3H]-MK-801): 104 ± 5.9 nM
- Ki ([4]; 1 nM (+)-[3H]-MK-801, Cheng-Prusoff): 66 nM and 66.4 nM
- Ki [5]: 379 nM
- Ki [6]: 841 nM
- Ki [7]: 629 nM and 628 nM
- Ki [8]: 721 nM
- displacement in primary screen [9]: less than 50%
- inhibition of NMDA receptor mediated fEPSP ([1]; 1 μM): 25%
- inhibition of NMDA receptor mediated fEPSP ([1]; 10 μM): near maximal inhibition; also recorded: near maximal effect
- effect on NMDA receptor mediated fEPSP ([1]; 30 μM): slowly reduced
- effect on AMPA receptor mediated fEPSP (peak amplitude) ([3]; 50 μM, 1 h superfusion): lack of effect; also recorded: did not affect; also recorded: no significant reduction
- block of NMDA receptor-mediated EPSCs ([2]; 10 μM): blocked NMDA receptor-mediated EPSCs in a highly voltage-dependent manner
- rectification index (RI; +40 mV/−40 mV) ([2]; 30 μM ephenidine, no added Mg2+): 3.6 ± 0.3
- effect on NMDA-EPSC current-voltage relationship ([2]; 30 μM, no added Mg2+): reduction of inward current at negative holding potentials
- mean NMDA-EPSC current at +40 mV ([2]; 30 μM, no added Mg2+, holding potential +40 mV): 133 ± 12 pA
- mean NMDA-EPSC current at −40 mV ([2]; 30 μM, no added Mg2+, holding potential −40 mV): −48 ± 8 pA
- effect on induction of LTP ([10]; 10 μM): blocked the induction of long term potentiation (LTP); also recorded: completely blocked the induction of LTP
- effect on induction of LTP ([10]; 30 μM): completely blocked the induction of LTP
- affinity for the PCP binding site [11]: 257 nM

Compound: CNC1(c2ccccc2Cl)CCCCC1=O (stereo not shown) [ketamine]
- time-course of reduction of NMDA receptor mediated fEPSP [1]: slower reduction
- rectification index (RI; +40 mV/−40 mV) ([2]; 10 μM, no added Mg2+): 2.0 ± 0.2
- Ki ([12]; listed as Ketamine): 324 ± 19.2 nM
- IC50 ([12]; read-out: IC50, (+)-[3H]-MK-801 displacement): 508 ± 30.1 nM
- Ki [12]: 324 ± 19 nM
